# Laboratory results: the kinase profiling compilation of Christmann-Franck et al. (2016)
# “And” between values parts separate entries of the source, which are not always exact repeats. Equal values may be shown once.
# Tests used:
# Test in all cases: radiometric filter-binding kinase assay, Kinase HotSpot
# Conditions in all cases: compound 0.5 µM; ATP 10 µM
# [1] = molecular target: ABL2 (human) (UniProt P42684)
# [2] = molecular target: AKT1 (human) (UniProt P31749)
# [3] = molecular target: AURKA (human) (UniProt O14965)
# [4] = molecular target: BRSK2 (human) (UniProt Q8IWQ3)
# [5] = molecular target: CAMK4 (human) (UniProt Q16566)
# [6] = molecular target: CAMKK1 (human) (UniProt Q8N5S9)
# [7] = molecular target: CAMKK2 (human) (UniProt Q96RR4)
# [8] = molecular target: CDK1 CCNA2 (human) (UniProt P06493+P20248)
# [9] = molecular target: CDK3 CCNE1 (human) (UniProt Q00526+P24864)
# [10] = molecular target: DCLK2 (human) (UniProt Q8N568)
# [11] = molecular target: DYRK1B (human) (UniProt Q9Y463)
# [12] = molecular target: IGF1R (human) (UniProt P08069)
# [13] = molecular target: IKBKB (human) (UniProt O14920)
# [14] = molecular target: JAK3 JH1 JH2 (human) (UniProt P52333)
# [15] = molecular target: LYN (human) (UniProt P07948)
# [16] = molecular target: MAP3K14 (human) (UniProt Q99558)
# [17] = molecular target: MAPK9 (human) (UniProt P45984)
# [18] = molecular target: MAPKAPK5 (human) (UniProt Q8IW41)
# [19] = molecular target: MARK1 (human) (UniProt Q9P0L2)
# [20] = molecular target: MET (human) (UniProt P08581)
# [21] = molecular target: NEK1 (human) (UniProt Q96PY6)
# [22] = molecular target: NTRK1 (human) (UniProt P04629)
# [23] = molecular target: OXSR1 (human) (UniProt O95747)
# [24] = molecular target: PAK2 (human) (UniProt Q13177)
# [25] = molecular target: PAK4 (human) (UniProt O96013)
# [26] = molecular target: PAK6 (human) (UniProt Q9NQU5)
# [27] = molecular target: PDPK1 (human) (UniProt O15530)
# [28] = molecular target: PRKCA (human) (UniProt P17252)
# [29] = molecular target: PRKCB2 (human) (UniProt P05771)
# [30] = molecular target: PRKCH (human) (UniProt P24723)
# [31] = molecular target: PTK6 (human) (UniProt Q13882)
# [32] = molecular target: RIPK2 (human) (UniProt O43353)
# [33] = molecular target: RPS6KA3 KD1 KD2 (human) (UniProt P51812)
# [34] = molecular target: RPS6KB1 (human) (UniProt P23443)
# [35] = molecular target: SRPK3 (human) (UniProt Q9UPE1)
# [36] = molecular target: STK16 (human) (UniProt O75716)
# [37] = molecular target: STK38 (human) (UniProt Q15208)
# [38] = molecular target: SYK (human) (UniProt P43405)
# [39] = molecular target: TXK (human) (UniProt P42681)
# [40] = molecular target: TYK2 JH1 catalytic (human) (UniProt P29597)
# [41] = molecular target: ULK3 (human) (UniProt Q6PHR2)
# [42] = molecular target: ZAP70 (human) (UniProt P43403)
# Chain of ZAP70 (human) (P43403 whole entry, looked up): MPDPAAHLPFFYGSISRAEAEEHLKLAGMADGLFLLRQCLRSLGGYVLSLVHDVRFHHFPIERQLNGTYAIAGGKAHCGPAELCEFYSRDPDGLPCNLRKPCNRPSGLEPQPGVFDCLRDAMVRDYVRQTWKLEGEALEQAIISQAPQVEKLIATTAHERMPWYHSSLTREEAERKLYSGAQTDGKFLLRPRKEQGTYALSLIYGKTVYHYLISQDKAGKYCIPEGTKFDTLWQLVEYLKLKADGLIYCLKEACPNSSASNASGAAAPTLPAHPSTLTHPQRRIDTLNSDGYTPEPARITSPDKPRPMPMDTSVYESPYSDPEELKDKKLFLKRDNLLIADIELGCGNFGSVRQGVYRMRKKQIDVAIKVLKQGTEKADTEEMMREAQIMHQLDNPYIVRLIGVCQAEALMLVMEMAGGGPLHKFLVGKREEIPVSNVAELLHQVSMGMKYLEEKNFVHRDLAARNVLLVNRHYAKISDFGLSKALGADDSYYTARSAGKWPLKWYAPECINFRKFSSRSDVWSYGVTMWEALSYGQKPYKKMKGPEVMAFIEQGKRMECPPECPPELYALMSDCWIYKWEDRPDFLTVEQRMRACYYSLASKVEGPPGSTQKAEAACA
# Chain of LYN (human) (P07948 whole entry, looked up): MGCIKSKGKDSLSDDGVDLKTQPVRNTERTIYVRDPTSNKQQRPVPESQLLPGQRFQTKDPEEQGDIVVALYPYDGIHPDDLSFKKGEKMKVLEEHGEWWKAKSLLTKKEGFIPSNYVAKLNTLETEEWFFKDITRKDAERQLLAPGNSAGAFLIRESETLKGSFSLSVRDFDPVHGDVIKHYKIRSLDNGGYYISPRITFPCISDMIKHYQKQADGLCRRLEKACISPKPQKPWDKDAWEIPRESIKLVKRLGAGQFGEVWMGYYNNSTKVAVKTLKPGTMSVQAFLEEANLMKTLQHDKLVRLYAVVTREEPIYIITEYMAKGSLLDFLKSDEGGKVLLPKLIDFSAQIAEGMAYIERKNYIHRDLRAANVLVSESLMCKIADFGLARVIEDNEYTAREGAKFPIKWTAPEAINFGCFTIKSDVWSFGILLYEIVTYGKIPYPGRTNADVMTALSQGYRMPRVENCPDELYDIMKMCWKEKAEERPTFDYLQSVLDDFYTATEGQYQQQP
# Chain of PTK6 (human) (Q13882 whole entry, looked up): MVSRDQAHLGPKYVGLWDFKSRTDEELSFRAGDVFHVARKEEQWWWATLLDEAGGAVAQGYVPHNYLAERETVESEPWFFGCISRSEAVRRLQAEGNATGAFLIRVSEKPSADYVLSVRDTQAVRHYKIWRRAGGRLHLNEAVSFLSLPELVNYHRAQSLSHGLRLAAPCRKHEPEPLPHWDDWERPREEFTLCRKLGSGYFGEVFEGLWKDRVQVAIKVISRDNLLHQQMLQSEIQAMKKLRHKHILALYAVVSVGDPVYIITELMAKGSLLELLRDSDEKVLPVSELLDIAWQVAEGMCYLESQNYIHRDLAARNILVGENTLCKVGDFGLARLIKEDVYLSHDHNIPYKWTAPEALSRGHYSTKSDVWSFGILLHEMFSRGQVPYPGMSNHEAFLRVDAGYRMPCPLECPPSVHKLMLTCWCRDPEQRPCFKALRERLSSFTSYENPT
# Chain of PAK2 (human) (Q13177 whole entry, looked up): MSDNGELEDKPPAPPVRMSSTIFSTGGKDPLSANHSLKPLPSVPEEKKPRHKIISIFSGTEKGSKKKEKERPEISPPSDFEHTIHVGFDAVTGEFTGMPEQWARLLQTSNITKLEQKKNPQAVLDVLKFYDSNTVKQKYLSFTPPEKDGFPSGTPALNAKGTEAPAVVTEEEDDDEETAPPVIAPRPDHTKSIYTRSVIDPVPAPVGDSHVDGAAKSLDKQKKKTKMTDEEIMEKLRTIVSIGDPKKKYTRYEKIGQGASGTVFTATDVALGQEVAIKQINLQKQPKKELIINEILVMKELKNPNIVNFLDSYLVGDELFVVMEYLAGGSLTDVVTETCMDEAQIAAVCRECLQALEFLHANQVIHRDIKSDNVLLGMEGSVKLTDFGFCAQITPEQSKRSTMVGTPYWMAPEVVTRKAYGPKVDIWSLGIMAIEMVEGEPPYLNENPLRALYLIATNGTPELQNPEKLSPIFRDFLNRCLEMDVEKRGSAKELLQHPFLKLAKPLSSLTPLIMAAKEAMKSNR
# Chain of MARK1 (human) (Q9P0L2 whole entry, looked up): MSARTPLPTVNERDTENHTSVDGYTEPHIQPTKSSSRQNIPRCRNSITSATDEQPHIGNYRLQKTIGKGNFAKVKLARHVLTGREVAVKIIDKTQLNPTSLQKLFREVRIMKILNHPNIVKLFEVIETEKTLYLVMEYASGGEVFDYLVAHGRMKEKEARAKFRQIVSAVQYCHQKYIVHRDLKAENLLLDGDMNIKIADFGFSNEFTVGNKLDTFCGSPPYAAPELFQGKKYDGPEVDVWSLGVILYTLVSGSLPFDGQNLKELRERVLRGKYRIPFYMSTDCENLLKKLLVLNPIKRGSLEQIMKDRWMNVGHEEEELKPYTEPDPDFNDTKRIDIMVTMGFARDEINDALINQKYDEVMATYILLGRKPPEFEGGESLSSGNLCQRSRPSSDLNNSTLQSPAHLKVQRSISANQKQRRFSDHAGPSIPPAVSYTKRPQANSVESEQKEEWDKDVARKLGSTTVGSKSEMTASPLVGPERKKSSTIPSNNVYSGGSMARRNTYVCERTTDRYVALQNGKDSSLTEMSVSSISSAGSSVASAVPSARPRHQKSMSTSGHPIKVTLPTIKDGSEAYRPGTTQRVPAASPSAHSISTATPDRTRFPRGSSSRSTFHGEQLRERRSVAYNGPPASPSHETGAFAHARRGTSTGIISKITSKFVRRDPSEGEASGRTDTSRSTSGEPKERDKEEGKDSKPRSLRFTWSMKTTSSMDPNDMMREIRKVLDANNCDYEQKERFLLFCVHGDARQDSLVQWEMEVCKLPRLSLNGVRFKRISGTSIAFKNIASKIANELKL
# Chain of RPS6KB1 (human) (P23443 whole entry, looked up): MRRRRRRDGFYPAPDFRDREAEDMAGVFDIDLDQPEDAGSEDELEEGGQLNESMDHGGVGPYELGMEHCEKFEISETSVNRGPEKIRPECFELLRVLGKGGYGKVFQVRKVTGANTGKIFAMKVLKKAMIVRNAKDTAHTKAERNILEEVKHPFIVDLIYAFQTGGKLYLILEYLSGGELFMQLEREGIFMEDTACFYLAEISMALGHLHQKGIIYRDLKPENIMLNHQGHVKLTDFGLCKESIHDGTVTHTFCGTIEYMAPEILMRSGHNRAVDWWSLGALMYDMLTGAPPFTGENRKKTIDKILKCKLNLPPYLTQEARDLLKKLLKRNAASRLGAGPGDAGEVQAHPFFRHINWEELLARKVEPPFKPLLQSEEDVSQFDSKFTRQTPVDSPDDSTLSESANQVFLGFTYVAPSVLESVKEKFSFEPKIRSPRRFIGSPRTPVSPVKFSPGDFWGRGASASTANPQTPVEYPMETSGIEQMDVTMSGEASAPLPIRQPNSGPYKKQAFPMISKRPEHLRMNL
# Chain of CDK1 CCNA2 (human) (P06493 whole entry, looked up): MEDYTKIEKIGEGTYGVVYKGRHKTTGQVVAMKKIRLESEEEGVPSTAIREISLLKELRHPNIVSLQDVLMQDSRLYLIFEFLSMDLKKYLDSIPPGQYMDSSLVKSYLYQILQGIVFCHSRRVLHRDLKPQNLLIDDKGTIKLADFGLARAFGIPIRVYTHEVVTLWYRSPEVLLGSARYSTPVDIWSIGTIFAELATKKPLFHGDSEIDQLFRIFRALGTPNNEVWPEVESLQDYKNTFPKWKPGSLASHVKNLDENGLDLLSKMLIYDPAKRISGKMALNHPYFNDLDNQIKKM
# Chain of CDK1 CCNA2 (human) (P20248 whole entry, looked up): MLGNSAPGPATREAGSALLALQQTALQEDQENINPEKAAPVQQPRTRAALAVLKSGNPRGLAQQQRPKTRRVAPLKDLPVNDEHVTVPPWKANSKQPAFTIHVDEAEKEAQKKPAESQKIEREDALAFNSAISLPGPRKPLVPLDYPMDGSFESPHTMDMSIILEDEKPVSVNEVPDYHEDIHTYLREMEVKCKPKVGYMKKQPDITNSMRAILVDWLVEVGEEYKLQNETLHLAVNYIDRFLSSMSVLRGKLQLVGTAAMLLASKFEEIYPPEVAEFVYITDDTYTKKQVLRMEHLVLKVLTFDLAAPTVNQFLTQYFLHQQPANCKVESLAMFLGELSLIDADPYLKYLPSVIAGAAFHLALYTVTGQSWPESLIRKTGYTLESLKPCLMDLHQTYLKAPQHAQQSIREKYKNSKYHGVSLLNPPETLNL
# Chain of RPS6KA3 KD1 KD2 (human) (P51812 whole entry, looked up): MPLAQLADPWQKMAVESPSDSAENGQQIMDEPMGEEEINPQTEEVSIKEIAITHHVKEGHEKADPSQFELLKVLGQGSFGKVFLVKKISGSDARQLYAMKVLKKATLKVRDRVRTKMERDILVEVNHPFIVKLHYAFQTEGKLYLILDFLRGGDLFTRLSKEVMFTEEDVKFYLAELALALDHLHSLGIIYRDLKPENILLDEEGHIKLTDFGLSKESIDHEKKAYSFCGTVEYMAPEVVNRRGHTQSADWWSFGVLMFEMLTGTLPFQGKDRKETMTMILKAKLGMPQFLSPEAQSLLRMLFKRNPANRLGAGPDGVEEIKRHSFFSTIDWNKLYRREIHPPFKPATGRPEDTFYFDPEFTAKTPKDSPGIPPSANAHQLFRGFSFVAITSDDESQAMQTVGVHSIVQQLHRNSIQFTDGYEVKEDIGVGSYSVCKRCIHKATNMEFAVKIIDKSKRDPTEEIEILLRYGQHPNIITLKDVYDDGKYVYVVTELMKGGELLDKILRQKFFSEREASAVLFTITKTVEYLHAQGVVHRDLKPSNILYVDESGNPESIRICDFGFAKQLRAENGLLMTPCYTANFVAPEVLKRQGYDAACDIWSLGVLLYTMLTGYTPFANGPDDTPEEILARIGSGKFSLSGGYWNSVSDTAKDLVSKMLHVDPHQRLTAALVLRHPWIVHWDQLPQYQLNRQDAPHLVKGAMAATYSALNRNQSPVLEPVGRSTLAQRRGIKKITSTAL
smiles,measurement,setting,value
CO[C@H]1CC2CC[C@@H](C)[C@@](O)(O2)C(=O)C(=O)N2CCCC[C@H]2C(=O)OC([C@H](C)C[C@@H]2CC[C@@H](O)[C@H](OC)C2)CC(=O)[C@H](C)/C=C(\C)[C@@H](O)[C@@H](OC)C(=O)[C@H](C)C[C@H](C)/C=C/C=C/C=C/1C (some centres undefined),residual activity,[1],94.2%
same,residual activity,[2],104%
same,residual activity,[3],81.5%
same,residual activity,[4],109%
same,residual activity,[5],99.1%
same,residual activity,[6],118%
same,residual activity,[7],115%
same,residual activity,[8],91.9%
same,residual activity,[9],102%
same,residual activity,[10],99.2%
same,residual activity,[11],108%
same,residual activity,[12],112%
same,residual activity,[13],109%
same,residual activity,[14],92.4%
same,residual activity,[15],100% and 105%
same,residual activity,[16],105%
same,residual activity,[17],98.4%
same,residual activity,[18],98%
same,residual activity,[19],98.8%
same,residual activity,[20],98.1%
same,residual activity,[21],104%
same,residual activity,[22],98.4%
same,residual activity,[23],96.6%
same,residual activity,[24],101%
same,residual activity,[25],97.1%
same,residual activity,[26],112%
same,residual activity,[27],92.6%
same,residual activity,[28],108%
same,residual activity,[29],89.1%
same,residual activity,[30],104%
same,residual activity,[31],88%
same,residual activity,[32],90.5%
same,residual activity,[33],105%
same,residual activity,[34],92.6%
same,residual activity,[35],97.2%
same,residual activity,[36],112%
same,residual activity,[37],92.8%
same,residual activity,[38],97.1%
same,residual activity,[39],105%
same,residual activity,[40],107%
same,residual activity,[41],85.6%
same,residual activity,[42],99.2%
CCC(=O)Nc1ccc2ncnc(Nc3cccc(Br)c3)c2c1,residual activity,[1],96.6%
same,residual activity,[2],95.8%
same,residual activity,[3],97.4%
same,residual activity,[4],94.3%
same,residual activity,[5],103%
same,residual activity,[6],99.8%
same,residual activity,[7],84.3%
same,residual activity,[8],87.9%
same,residual activity,[9],86.5%
same,residual activity,[10],89%
same,residual activity,[11],95.2%
same,residual activity,[12],87.6%
same,residual activity,[13],94.9%
same,residual activity,[14],98.3%
same,residual activity,[15],82.6% and 87.7%
same,residual activity,[16],116%
same,residual activity,[17],78.3%
same,residual activity,[18],105%
same,residual activity,[19],98.5%
same,residual activity,[20],103%
same,residual activity,[21],76.9%
same,residual activity,[22],95.8%
same,residual activity,[23],107%
same,residual activity,[24],101%
same,residual activity,[25],105%
same,residual activity,[26],101%
same,residual activity,[27],107%
same,residual activity,[28],96.5%
same,residual activity,[29],101%
same,residual activity,[30],89.3%
same,residual activity,[31],57.2%
same,residual activity,[32],71.4%
same,residual activity,[33],95%
same,residual activity,[34],91.2%
same,residual activity,[35],97%
same,residual activity,[36],99.6%
same,residual activity,[37],100%
same,residual activity,[38],94.3%
same,residual activity,[39],90.5%
same,residual activity,[40],90.2%
same,residual activity,[41],97.5%
same,residual activity,[42],113%
